Source: BigSolDB 2.1

## CCCN(CCc1cccs1)[C@H]1CCc2c(O)cccc2C1
In ethanol, 278.15 K
  solubility (mole fraction): 0.00236
In ethanol, 283.15 K
  solubility (mole fraction): 0.00398
In ethanol, 288.15 K
  solubility (mole fraction): 0.00677
In ethanol, 293.15 K
  solubility (mole fraction): 0.00912
In ethanol, 298.15 K
  solubility (mole fraction): 0.012
In ethanol, 303.15 K
  solubility (mole fraction): 0.0183
In ethanol, 308.15 K
  solubility (mole fraction): 0.0239
In ethanol, 313.15 K
  solubility (mole fraction): 0.0345
In ethyl acetate, 278.15 K
  solubility (mole fraction): 0.0243
In ethyl acetate, 283.15 K
  solubility (mole fraction): 0.0303
In ethyl acetate, 288.15 K
  solubility (mole fraction): 0.0369
In ethyl acetate, 293.15 K
  solubility (mole fraction): 0.0437
In ethyl acetate, 298.15 K
  solubility (mole fraction): 0.0512
In ethyl acetate, 303.15 K
  solubility (mole fraction): 0.0601
In ethyl acetate, 308.15 K
  solubility (mole fraction): 0.0707
In ethyl acetate, 313.15 K
  solubility (mole fraction): 0.0812
In isopropanol, 278.15 K
  solubility (mole fraction): 0.00273
In isopropanol, 283.15 K
  solubility (mole fraction): 0.00418
In isopropanol, 288.15 K
  solubility (mole fraction): 0.00598
In isopropanol, 293.15 K
  solubility (mole fraction): 0.00845
In isopropanol, 298.15 K
  solubility (mole fraction): 0.0105
In isopropanol, 303.15 K
  solubility (mole fraction): 0.0163
In isopropanol, 308.15 K
  solubility (mole fraction): 0.0219
In isopropanol, 313.15 K
  solubility (mole fraction): 0.0311
In isopropyl acetate, 278.15 K
  solubility (mole fraction): 0.0201
In isopropyl acetate, 283.15 K
  solubility (mole fraction): 0.0257
In isopropyl acetate, 288.15 K
  solubility (mole fraction): 0.0314
In isopropyl acetate, 293.15 K
  solubility (mole fraction): 0.0381
In isopropyl acetate, 298.15 K
  solubility (mole fraction): 0.046
In isopropyl acetate, 303.15 K
  solubility (mole fraction): 0.0553
In isopropyl acetate, 308.15 K
  solubility (mole fraction): 0.0661
In isopropyl acetate, 313.15 K
  solubility (mole fraction): 0.0782
In methanol, 278.15 K
  solubility (mole fraction): 0.00131
In methanol, 283.15 K
  solubility (mole fraction): 0.00249
In methanol, 288.15 K
  solubility (mole fraction): 0.00379
In methanol, 293.15 K
  solubility (mole fraction): 0.00531
In methanol, 298.15 K
  solubility (mole fraction): 0.00696
In methanol, 303.15 K
  solubility (mole fraction): 0.0107
In methanol, 308.15 K
  solubility (mole fraction): 0.0161
In methanol, 313.15 K
  solubility (mole fraction): 0.0248
In methyl acetate, 278.15 K
  solubility (mole fraction): 0.0124
In methyl acetate, 283.15 K
  solubility (mole fraction): 0.0167
In methyl acetate, 288.15 K
  solubility (mole fraction): 0.0211
In methyl acetate, 293.15 K
  solubility (mole fraction): 0.0262
In methyl acetate, 298.15 K
  solubility (mole fraction): 0.0323
In methyl acetate, 303.15 K
  solubility (mole fraction): 0.0393
In methyl acetate, 308.15 K
  solubility (mole fraction): 0.0482
In methyl acetate, 313.15 K
  solubility (mole fraction): 0.0587
In n-butanol, 278.15 K
  solubility (mole fraction): 0.00758
In n-butanol, 283.15 K
  solubility (mole fraction): 0.0105
In n-butanol, 288.15 K
  solubility (mole fraction): 0.0129
In n-butanol, 293.15 K
  solubility (mole fraction): 0.0163
In n-butanol, 298.15 K
  solubility (mole fraction): 0.0222
In n-butanol, 303.15 K
  solubility (mole fraction): 0.0306
In n-butanol, 308.15 K
  solubility (mole fraction): 0.0387
In n-butanol, 313.15 K
  solubility (mole fraction): 0.0467
In n-butyl acetate, 278.15 K
  solubility (mole fraction): 0.0311
In n-butyl acetate, 283.15 K
  solubility (mole fraction): 0.0368
In n-butyl acetate, 288.15 K
  solubility (mole fraction): 0.0433
In n-butyl acetate, 293.15 K
  solubility (mole fraction): 0.051
In n-butyl acetate, 298.15 K
  solubility (mole fraction): 0.0597
In n-butyl acetate, 303.15 K
  solubility (mole fraction): 0.0688
In n-butyl acetate, 308.15 K
  solubility (mole fraction): 0.08
In n-butyl acetate, 313.15 K
  solubility (mole fraction): 0.0915
In n-propanol, 278.15 K
  solubility (mole fraction): 0.00555
In n-propanol, 283.15 K
  solubility (mole fraction): 0.00758
In n-propanol, 288.15 K
  solubility (mole fraction): 0.0103
In n-propanol, 293.15 K
  solubility (mole fraction): 0.0138
In n-propanol, 298.15 K
  solubility (mole fraction): 0.0175
In n-propanol, 303.15 K
  solubility (mole fraction): 0.0237
In n-propanol, 308.15 K
  solubility (mole fraction): 0.0298
In n-propanol, 313.15 K
  solubility (mole fraction): 0.0399
In n-propyl acetate, 278.15 K
  solubility (mole fraction): 0.0247
In n-propyl acetate, 283.15 K
  solubility (mole fraction): 0.0305
In n-propyl acetate, 288.15 K
  solubility (mole fraction): 0.0371
In n-propyl acetate, 293.15 K
  solubility (mole fraction): 0.0435
In n-propyl acetate, 298.15 K
  solubility (mole fraction): 0.052
In n-propyl acetate, 303.15 K
  solubility (mole fraction): 0.0612
In n-propyl acetate, 308.15 K
  solubility (mole fraction): 0.0716
In n-propyl acetate, 313.15 K
  solubility (mole fraction): 0.0834
